# Data from patent publication US20190008155A1, “Synergistic Agricultural Formula Comprising Diacyl or Diaryl Urea and At Least One Plant Growth Regulator” (Stoller Enterprises, Inc., priority 2017, published 2019).
# How the values were obtained:
# Type in all cases: in vivo
# corn [1] = assay: Yield, V3-V5 foliar corn treatment (FIG. 9); settings: statistical data for FIG. 9, yield
# Excerpt: FIG. 9 is a graph showing V3-V5 foliar corn treatment using a synergistic agricultural formula in accordance with the present invention including 7.5 wt. % DFU and 0.01 wt. % cytokinin applied at a Pint/Acre compared to each individual component applied at a Pint/Acre.
# (§1) The statistical data for this analysis is provided as follows: […]
# corn [2] = assay: Yield upon corn seed treatment (FIG. 5); settings: statistical data for FIG. 5, yield
# Excerpt: (§2) FIG. 5 is a graph showing the yield upon corn seed treatment using a synergistic agricultural formula in accordance with the present invention including 14 wt. % DFU and 10 wt. % of Stollers STIMULATE YE Plant Growth Regulator Mix applied at a Pint/Acre compared to each individual component applied at a Pint/Acre;
# as §1
# soybean = assay: Yield upon soybean seed treatment (FIG. 7); settings: statistical data for FIG. 7, yield
# Excerpt: as §2, with “7” for “5”, “soybean” for “corn”
# as §1
# corn [3] = assay: Yield in furrow corn treatment (FIG. 8); settings: statistical data for FIG. 8, yield
# Excerpt: FIG. 8 is a graph showing the yield in furrow corn treatment using a synergistic agricultural formula in accordance with the present invention including 7.5 wt. % DFU, 0.01 wt. % cytokinin, and 0.05 wt. % IAA applied at a Pint/Acre compared to each individual component applied at a Pint/Acre; and
# as §1
# winter wheat = assay: Yield upon winter wheat seed treatment (FIG. 6); settings: statistical data for FIG. 6, yield
# Excerpt: as §2, with “6” for “5”, “winter wheat” for “corn”
# as §1
compound,measurement,setting,value
"O=CNC(=O)NC=O [15% DFU, N,N′-diformylurea]",p Vs Combination,corn [1],0.0677
same,p Vs Control,corn [1],0.6829
same,p Vs Combination,corn [2],0.0442
same,p Vs Control,corn [2],0.8782
same,p Vs Combination,soybean,0.052
same,p Vs Control,soybean,0.4492
same,p Vs Combination,corn [3],0.0622
same,p Vs Control,corn [3],0.5485
same,p Vs Combination,winter wheat,0.0089
same,p Vs Control,winter wheat,0.0026
